Structures are written as SMILES. Inconclusive results and toxic doses are left out.

From PubChem BioAssay AID328 (DTP/NCI, 2004) come the findings set out here.

For this test, the system named is BDF1 mice, P388 leukemia ip, median survival T/C. Briefly: NCI In Vivo Anticancer Drug Screen. Data for tumor model P388 Leukemia (intraperitoneal) in B6D2F1 (BDF1) mice. The note with it: endpoint: median survival time, higher = longer survival. In outline: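 In tumour-bearing mice, survival after compound treatment is set against the vehicle group and given as a quotient.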

Setting [1] is: dose: 25.0 mg/kg/injection, schedule: Q04DX003 (ip), vehicle: saline.
Setting [2] is: dose: 50.0 mg/kg/injection, schedule: Q04DX003 (ip), vehicle: saline.
[3] abbreviates: dose: 100.0 mg/kg/injection, schedule: Q04DX003 (ip), vehicle: saline.
Where [4] appears, read: dose: 50.0 mg/kg/injection, schedule: Q01DX009 (ip), vehicle: saline.
Setting [5] is: dose: 12.5 mg/kg/injection, schedule: Q04DX003 (ip), vehicle: saline.

`[Cl][Co][Cl].[NH-]CCN1CC1`: the T/C by setting is: under setting [1], 103 % of control; under setting [2], 107 % of control; under setting [3], 103 % of control.

Take `O=C1C=CC(=O)N1`: the T/C by setting is: (dose: 0.26 mg/kg/injection, schedule: Q01DX009 (ip), vehicle: saline) 105 % of control; (dose: 0.4 mg/kg/injection, schedule: Q01DX009 (ip), vehicle: saline) 90 % of control; (dose: 0.61 mg/kg/injection, schedule: Q01DX009 (ip), vehicle: saline) 100 % of control; (dose: 0.93 mg/kg/injection, schedule: Q01DX009 (ip), vehicle: saline) 109 % of control; (dose: 1.39 mg/kg/injection, schedule: Q01DX009 (ip), vehicle: saline) 118 % of control; (dose: 3.6 mg/kg/injection, schedule: Q04DX003 (ip), vehicle: saline) 95 % of control. In addition, where the note is “dose: 8.5 mg/kg/injection, schedule: Q04DX003 (ip), vehicle: saline”, the T/C was 104 % of control.

`COc1ccccc1C(=O)NS(=O)(=O)c1ccc(Cl)cc1`: the T/C runs as follows: (dose: 50.0 mg/kg/injection, schedule: Q01DX009 (ip), vehicle: Klucel (hydroxypropylcellulose) (HPC)) 105 % of control; (dose: 100.0 mg/kg/injection, schedule: Q01DX009 (ip), vehicle: Klucel (hydroxypropylcellulose) (HPC)) 110 % of control; (dose: 200.0 mg/kg/injection, schedule: Q01DX009 (ip), vehicle: Klucel (hydroxypropylcellulose) (HPC)) 120 % of control.

With `O.[Co].[Co].[NH2-].[NH2-].[NH2-].[NH2-].[NH2-].[NH2-].[NH2-].[NH2-].[NH2-]`, the T/C runs as follows: (dose: 0.5 mg/kg/injection, schedule: Q01DX009 (ip), vehicle: water) 100 % of control; (dose: 1.5 mg/kg/injection, schedule: Q04DX003 (ip), vehicle: water) 121 % of control; (dose: 2.0 mg/kg/injection, schedule: Q01DX009 (ip), vehicle: water) 95 % of control; (dose: 3.0 mg/kg/injection, schedule: Q04DX003 (ip), vehicle: water) 95 % of control; (dose: 4.0 mg/kg/injection, schedule: Q01DX009 (ip), vehicle: water) 100 % of control.

For `Oc1ccc(O)cc1`, the T/C reads like this: (dose: 25.0 mg/kg/injection, schedule: Q04DX003 (ip), vehicle: Klucel (hydroxypropylcellulose) (HPC)) 106 % of control; under setting [4], 112 % of control; (dose: 50.0 mg/kg/injection, schedule: Q04DX003 (ip), vehicle: Klucel (hydroxypropylcellulose) (HPC)) 110 % of control; (dose: 66.0 mg/kg/injection, schedule: Q01DX009 (ip), vehicle: saline) 100 % of control; (dose: 100.0 mg/kg/injection, schedule: Q04DX003 (ip), vehicle: Klucel (hydroxypropylcellulose) (HPC)) 112 % of control.

Take `COc1cc(/C=N/NC(=O)C(=O)Nc2cccc(Cl)c2)cc(OC)c1O`: the T/C reads like this: (dose: 50.0 mg/kg/injection, schedule: Q01DX005 (ip), vehicle: saline with Tween-80) 91 % of control; (dose: 100.0 mg/kg/injection, schedule: Q01DX005 (ip), vehicle: saline with Tween-80) 100 % of control; (dose: 200.0 mg/kg/injection, schedule: Q01DX005 (ip), vehicle: saline with Tween-80) 100 % of control.

With `CCCCCCCCCCCCCCCC(=O)OCCCCCCCCCC`, the T/C reads like this: (dose: 25.0 mg/kg/injection, schedule: Q04DX003 (ip), vehicle: saline with Tween-80) 100 % of control; (dose: 50.0 mg/kg/injection, schedule: Q04DX003 (ip), vehicle: saline with Tween-80) 100 % of control; (dose: 100.0 mg/kg/injection, schedule: Q04DX003 (ip), vehicle: saline with Tween-80) 100 % of control.

In the case of `O=c1[nH]c(=O)[nH]c(=O)[nH]1`, the T/C was 120 % of control (dose: 75.0 mg/kg/injection, schedule: Q01DX009 (ip), vehicle: Klucel (hydroxypropylcellulose) (HPC)); 120 % of control (dose: 150.0 mg/kg/injection, schedule: Q01DX009 (ip), vehicle: Klucel (hydroxypropylcellulose) (HPC)); 110 % of control (dose: 300.0 mg/kg/injection, schedule: Q01DX009 (ip), vehicle: Klucel (hydroxypropylcellulose) (HPC)).

For the compound `CCOC(=O)C(=NN(C)C)C(=O)OCC`, the T/C under setting [4] is 104 % of control; the T/C (dose: 100.0 mg/kg/injection, schedule: Q01DX009 (ip), vehicle: saline) was 92 % of control; the T/C (dose: 200.0 mg/kg/injection, schedule: Q01DX009 (ip), vehicle: saline) is 101 % of control.

For the compound `NC(CO)CSCc1ccccc1` (centres undefined), the T/C is 114 % of control under setting [5], 104 % of control under setting [1], 98 % of control under setting [2] and 97 % of control under setting [3].

Turning to `CN(C)CCCN=C1Nc2ccccc2C(=NCCCN(C)C)Nc2ccccc21`, the T/C (dose: 12.5 mg/kg/injection, schedule: Q01DX009 (ip), vehicle: saline) was 104 % of control; the T/C under setting [5] was 100 % of control; the T/C (dose: 25.0 mg/kg/injection, schedule: Q01DX009 (ip), vehicle: saline) was 95 % of control; the T/C under setting [1] is 88 % of control; the T/C under setting [4] is 100 % of control; the T/C under setting [2] is 111 % of control.

Regarding `CCOC(=O)c1[nH]cnc1/N=N/N(C)C`, the T/C runs as follows: (dose: 26.4 mg/kg/injection, schedule: Q01DX009 (ip), vehicle: saline with Tween-80) 175 % of control; (dose: 60.0 mg/kg/injection, schedule: Q01DX009 (ip), vehicle: saline with Tween-80) 87 % of control.

For `O=C1C2C(c3cc4ccccc4n31)N2c1ccccc1` (centres undefined), the T/C (dose: 0.03 mg/kg/injection, schedule: Q01DX010 (ip), vehicle: water) was 110 % of control; the T/C (dose: 0.06 mg/kg/injection, schedule: Q01DX010 (ip), vehicle: water) is 94 % of control; the T/C (dose: 0.13 mg/kg/injection, schedule: Q01DX010 (ip), vehicle: water) was 94 % of control; the T/C (dose: 0.25 mg/kg/injection, schedule: Q01DX010 (ip), vehicle: water) was 94 % of control; the T/C (dose: 0.5 mg/kg/injection, schedule: Q01DX010 (ip), vehicle: water) was 105 % of control; the T/C (dose: 1.0 mg/kg/injection, schedule: Q01DX010 (ip), vehicle: water) was 105 % of control. Under “dose: 2.0 mg/kg/injection, schedule: Q01DX010 (ip), vehicle: water”, the T/C is 105 % of control.

For the compound `COc1ccc2c(c1)CC[C@@H]1[C@@H]2CC[C@@]2(C)[C@H]1CC[C@@]2(O)C(F)=C(F)F`, the T/C is, setting by setting: (dose: 50.0 mg/kg/injection, schedule: Q01DX009 (ip), vehicle: saline with Tween-80) 118 % of control; (dose: 100.0 mg/kg/injection, schedule: Q01DX009 (ip), vehicle: saline with Tween-80) 113 % of control; (dose: 200.0 mg/kg/injection, schedule: Q01DX009 (ip), vehicle: saline with Tween-80) 104 % of control.

Regarding `CC(=O)N1CCn2nccc21`, the T/C was 104 % of control (dose: 100.0 mg/kg/injection, schedule: Q04DX003 (ip), vehicle: water); 90 % of control (dose: 200.0 mg/kg/injection, schedule: Q04DX003 (ip), vehicle: water); 112 % of control (dose: 400.0 mg/kg/injection, schedule: Q04DX003 (ip), vehicle: water).

Regarding `CC[C@@]1(O)C[C@H](OC2CC(N(C)C)C(OC3CC(O)C(OC4CC(O)C(O)C(C)O4)C(C)O3)C(C)O2)c2c(cc3c(c2O)C(=O)c2c(O)ccc(O)c2C3=O)[C@H]1C(=O)OC` (some centres undefined), the T/C runs as follows: (dose: 1.08 mg/kg/injection, schedule: Q04DX003 (ip), vehicle: water) 185 % of control; (dose: 1.8 mg/kg/injection, schedule: Q04DX003 (ip), vehicle: water) 194 % of control; (dose: 1.9 mg/kg/injection, schedule: Q01DX001 (ip), vehicle: other) 169 % of control; (dose: 3.8 mg/kg/injection, schedule: Q01DX001 (ip), vehicle: other) 196 % of control; (dose: 5.0 mg/kg/injection, schedule: Q04DX003 (ip), vehicle: water) 101 % of control; (dose: 7.5 mg/kg/injection, schedule: Q01DX001 (ip), vehicle: other) 198 % of control.

Consider `O=C(O)C1OC12CCCCC2` (centres undefined), for which the T/C is 91 % of control under setting [3]; 91 % of control (dose: 200.0 mg/kg/injection, schedule: Q04DX003 (ip), vehicle: saline); 91 % of control (dose: 400.0 mg/kg/injection, schedule: Q04DX003 (ip), vehicle: saline).
